Numbering of substitutions follows the chain as printed.
Columns and labels:
WT CLC-Ka = target: T1, WT CLC-Ka (Homo sapiens, UniProt P51800); test: NFA modulation of WT CLC-Ka currents, voltage clamp in Xenopus oocytes; assay type: cell-based
T1 sequence (P51800 1-687): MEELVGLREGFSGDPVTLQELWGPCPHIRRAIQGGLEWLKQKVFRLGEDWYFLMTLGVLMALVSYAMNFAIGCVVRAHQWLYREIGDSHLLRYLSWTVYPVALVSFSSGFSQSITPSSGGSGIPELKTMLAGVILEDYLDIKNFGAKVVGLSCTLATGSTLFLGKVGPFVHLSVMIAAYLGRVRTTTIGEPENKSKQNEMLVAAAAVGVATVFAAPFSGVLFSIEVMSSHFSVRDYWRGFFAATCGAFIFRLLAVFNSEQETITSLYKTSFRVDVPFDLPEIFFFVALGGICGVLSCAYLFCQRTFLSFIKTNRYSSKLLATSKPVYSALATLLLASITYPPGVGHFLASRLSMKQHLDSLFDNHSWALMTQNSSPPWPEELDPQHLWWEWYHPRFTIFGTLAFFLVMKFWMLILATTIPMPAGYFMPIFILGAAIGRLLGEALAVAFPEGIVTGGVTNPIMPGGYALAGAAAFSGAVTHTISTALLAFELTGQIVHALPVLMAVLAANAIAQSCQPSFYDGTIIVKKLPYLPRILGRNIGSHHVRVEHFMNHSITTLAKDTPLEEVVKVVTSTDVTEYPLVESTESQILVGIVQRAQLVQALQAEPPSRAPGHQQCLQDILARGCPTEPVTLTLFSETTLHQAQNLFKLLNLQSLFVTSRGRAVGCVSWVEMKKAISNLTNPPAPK
T1 sequence (Q8WZ55 1-320 Y98A partner): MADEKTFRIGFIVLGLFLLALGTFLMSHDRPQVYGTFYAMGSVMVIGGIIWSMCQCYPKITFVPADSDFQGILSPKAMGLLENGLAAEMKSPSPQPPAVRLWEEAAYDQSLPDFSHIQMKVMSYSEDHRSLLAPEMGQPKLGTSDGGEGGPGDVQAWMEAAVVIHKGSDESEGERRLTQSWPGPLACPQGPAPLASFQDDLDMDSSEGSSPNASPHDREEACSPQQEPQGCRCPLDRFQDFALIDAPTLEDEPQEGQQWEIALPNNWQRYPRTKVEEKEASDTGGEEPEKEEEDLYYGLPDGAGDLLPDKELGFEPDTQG

CLC-K1 without barttin = target: T2, CLC-K1 without barttin (Rattus norvegicus, UniProt Q06393); test: NFA effect on WT CLC-K1 without barttin, voltage clamp in Xenopus oocytes; assay type: cell-based
T2 sequence (Q06393 1-687): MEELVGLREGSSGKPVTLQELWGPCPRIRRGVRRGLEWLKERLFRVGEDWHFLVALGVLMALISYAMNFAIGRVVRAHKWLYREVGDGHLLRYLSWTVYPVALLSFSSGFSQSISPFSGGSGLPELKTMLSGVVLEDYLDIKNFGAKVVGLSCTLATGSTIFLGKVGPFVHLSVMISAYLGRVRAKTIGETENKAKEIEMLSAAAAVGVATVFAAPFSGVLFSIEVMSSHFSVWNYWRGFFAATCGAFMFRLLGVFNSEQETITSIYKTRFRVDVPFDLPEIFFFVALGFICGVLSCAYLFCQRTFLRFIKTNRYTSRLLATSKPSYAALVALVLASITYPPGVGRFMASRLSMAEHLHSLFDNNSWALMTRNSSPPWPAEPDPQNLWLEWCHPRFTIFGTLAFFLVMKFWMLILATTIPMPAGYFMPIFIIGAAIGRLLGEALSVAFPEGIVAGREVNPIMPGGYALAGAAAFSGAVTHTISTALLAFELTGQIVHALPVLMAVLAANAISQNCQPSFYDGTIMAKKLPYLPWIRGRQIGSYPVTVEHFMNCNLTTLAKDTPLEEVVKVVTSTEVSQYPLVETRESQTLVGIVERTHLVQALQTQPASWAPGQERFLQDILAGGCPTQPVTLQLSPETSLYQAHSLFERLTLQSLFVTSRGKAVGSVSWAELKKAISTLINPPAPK

N257A CLC-Ka [1] = target: T3, N257A CLC-Ka (Homo sapiens, UniProt P51800, N257A); assay type: cell-based; settings: 4 μM NFAext in the presence of 100 μM CPAint; −100 mV and 60 mV
T3 sequence (P51800 1-687 N257A): T1 sequence (P51800 1-687) with N257A
T3 sequence (Q8WZ55 1-320 Y98A partner): T1 sequence (Q8WZ55 1-320 Y98A partner)

N257A CLC-Ka [2] = target: T3, N257A CLC-Ka; test: NFA effect on N257A CLC-Ka currents, voltage clamp in Xenopus oocytes; assay type: cell-based
rat CLC-K1 = settings: all concentrations tested; cited from earlier work

- current increase (WT CLC-Ka; 200 μM NFA, WT CLC-Ka in Xenopus oocytes): 3 fold
- effect of NFA on currents (WT CLC-Ka; [NFA]ext > 500 μM): inhibited
- maximal stimulation of currents (WT CLC-Ka; at 500 μM NFA, currents at 60 mV normalized to 0 NFA): 4 fold
- effect of NFA on currents (WT CLC-Ka; very low [NFA]ext): not changed
- currents relative to control conditions (CLC-K1 without barttin; 10 μM NFA): about 80%
- currents relative to control conditions (CLC-K1 without barttin; 200 μM NFA): ~45%
- effect of NFA on single channel conductance (N257A CLC-Ka [1]): does not affect the conductance
- effect of NFA on currents (N257A CLC-Ka [2]; all [NFA]ext tested, from 1 to 2000 μM): only blocked
- inhibition at 5 µM (N257A CLC-Ka [2]; read-out: inhibition of currents): ~90%
SMILES: O=C(O)c1cccnc1Nc1cccc(C(F)(F)F)c1 [NFA, niflumic acid]
- effect on rat CLC-K1 (rat CLC-K1): blocked

From article PMC4331650 (Biochimica et Biophysica Acta, 2014)
